Tests used:
[1] = molecular target: T1, GLP-1R (Homo sapiens, UniProt P43220); test: EndoC cAMP accumulation assay (HTRF, EndoC-βH1 cells); format: cell-based; details: EndoC-βH1 human pancreatic β cell line
T1 construct: host or cells: EndoC-βH1
From the text: EndoC cAMP Accumulation Assay
A HTRF cAMP assay (cAMP Gs dynamic kit; CisoBio Cat #62AM4PEJ) was used to identify agonists of GLP-1R in a pancreatic insulinoma cell line (EndoC-PH1). […] EndoC-βH1 cells have detectable GLP-1R messenger ribonucleic acid (mRNA) as detected by quantitative polymerase chain reaction (qPCR). […] The EndoC-βH1 cell line is a valid model of human beta cells and applicable for screenings to identify novel drug target candidates (Mol. Metab., 2018, 8, 144-157). CisBio HTRF cAMP kits are based on a competitive immunoassay using cryptate-labelled anti-cAMP antibody and d2-labeled cAMP. The detection kit is intended for the direct quantitative determination of cAMP. The specific signal (i.e. energy transfer) is inversely proportional to the concentration of cAMP in the standard or sample. Test compounds (10 mM in DMSO) were diluted into assay buffer (HBSS (Sigma #H8264) supplemented with 25 mM HEPES (Gibco #15630, pH 7.4), 0.1% BSA (Sigma #A3059) and 0.5 mM IBMX (Sigma #I7018) included fresh on the day of the assay) into 96 well U-bottom plates (Greiner #650201). Diluted compounds were transferred to ECHO source polypropelene plates (Labcyte #P-05525) and dose response curves were dispensed acoustically using ECHO 550 into black shallow-well u-bottom 384-well HTRF Assay Plates (Corning 4514).
Cryovials of EndoC-H1 (supplied at 1×10e^7 cells/vial) were used directly for screening. The cryovials and were removed from N2(l) and thawed rapidly in a 37° C. water bath. The cells were resuspended in assay buffer and centrifuged at 300 g for 5 min. Cells were resuspended in assay buffer at the appropriate concentration, typically at 12e5 cells per mL (3000 cells per well, dependent on cell batch) and 2.5 μL diluted cells were added to all wells of destination plate by Multidrop combi reagent dispenser (Thermofisher). The plates were incubated at rt for 30 min. The assay was stopped by adding 2.5 μL anti-cAMP cryptate solution to all wells and 2.5 μL cAMP-d2 solution (both diluted 1:20 in lysis buffer) to columns 1-22 by Combi drop. A volume of 2.5 μL cAMP-d2 solution was added to wells E23 to P24 and 2.5 μL lysis buffer added to wells A23 to D24 by multichannel pipette. The plates were incubated at rt for 1 h and read on an Envision plate reader using excitation wavelength of 320 nm and emission of 590 nm and 660 nm.
Raw data from Envision is converted to % DeltaF according to the manufacturer's instructions. Dose response curves are analysed via 4-Parameter Logistical Analysis and assay plate Z′ values obtained. Samples are graphed as percentage (%) activation plots compared to GIP (1-42, Bachem H-5645) with assay window defined by negative control as basal cell cAMP levels and positive control are defined by maximum GIP (82.5 nM) signal. GLP-1 (7-36 amide, Bachem H-6795) dose response curve was included on all plates.

[2] = molecular target: T2, human GLP-1R receptor (Homo sapiens, UniProt P43220, L260F); test: CHOK1 GLP-1R cAMP assay (HTRF); format: cell-based; details: CHO-K1 cells stably expressing human GLP-1R
T2 construct: expressed in transfected cells; host or cells: CHO-K1 (ATCC CCL-61)
Method: A cell line stably expressing the human GLP-1R receptor (NM_002062.5, including the naturally-occurring variant Leu260Phe) in a CHO-K1 (ATCC® CCL-61™) was used for assay.
GLP-1 receptor mediated agonist activity was determined in a cell-based assay measuring cyclic adenosine monophosphate (cAMP) levels in cells using Homogeneous Time-Resolved Fluorescence (HTRF) cAMP detection kit (CisBio catalog #62AM4PEC, cAMP Gs Dynamic range kit). The cAMP detection method is based on a competitive immunoassay, in which cAMP produced by the cells and cAMP labeled with the dye d2 compete for binding to a Europium-Cryptate-labeled anti-cAMP antibody. The specific HTRF signal is inversely proportional to the concentration of cAMP.
Compounds were added to individual well in 384 well-assay plates (Greiner #784076) using an Echo (LabCyte) dispenser from 10 mM stocks. Varying concentration of compounds were added to wells, and DMSO was used to normalize each well to a volume of 100 nL. A dose response curve of GLP-1(7-36)NH2 (Bachem H-6795) was included in each run. 5 μL of cAMP concentration response standards are applied in specified wells in the assay plates. Cryo-preserved cells are thawed and resuspended in assay buffer pre-heated to 37° C. (20 mM 2-[4-(2-hydroxyethyl)piperazin-1-yl]ethanesulfonic acid (HEPES) pH 7.4, lx Hank's Balanced Salt Solution (HBSS, Life Technologies #14065) supplemented with 0.1% (w/v) bovine serum albumin (Sigma, A-7030)). Cells were centrifuged at 250*g for 5 min at rt, and resuspended in room tempered assay buffer to a final density of 0.16*10^6 cell/mL, to deliver 800 cells/well. 5 μL of assay buffer with 1 mM 3-isobutyl-1-methylxanthin (IBMX; Sigma cat I-7018) was dispensed per well in assay plates using a multidrop combi (Thermo Scientific) subsequently 5 μL of cell suspension was distributed to relevant wells in the assay using a multidrop dispenser. Assay plates were incubated 20 min at rt.
Detection reagents, Europium-Cryptate-labeled anti-cAMP antibody and cAMP labeled with the dye d2, are diluted in lysis buffer, provided by the manufacturer. 5 μL of each detection reagent is supplemented to each assay well using a multidrop dispenser. Assay plates are incubated in the dark for at least one h. The HTRF signal is measured using the HTRF module (excitation: 337 nm, emission A: 665 nm and emission B: 620 nm) in Pherastar FSX (BMG Labtech).
Raw data were converted to pM cAMP using the cAMP standard curve included in each run. Converted data were further analyzed in Genedata Screener (Genedata) and EC50 determinations were made from agonist dose-response curves analyzed with a curve fitting program using a 4-parameter logistic dose response equation (Equation y=A+((B−A)/1+((C/x)^D))) where A is no stimulation, B is full stimulation, C is the EC50 and D is the Hill slope). The percent effect was determined relative to a saturating concentration of a full GLP-1R agonist (GLP-1(7-36)NH2 has 100% effect in this assay setup).

T2 sequence (P43220 24-463 L260F): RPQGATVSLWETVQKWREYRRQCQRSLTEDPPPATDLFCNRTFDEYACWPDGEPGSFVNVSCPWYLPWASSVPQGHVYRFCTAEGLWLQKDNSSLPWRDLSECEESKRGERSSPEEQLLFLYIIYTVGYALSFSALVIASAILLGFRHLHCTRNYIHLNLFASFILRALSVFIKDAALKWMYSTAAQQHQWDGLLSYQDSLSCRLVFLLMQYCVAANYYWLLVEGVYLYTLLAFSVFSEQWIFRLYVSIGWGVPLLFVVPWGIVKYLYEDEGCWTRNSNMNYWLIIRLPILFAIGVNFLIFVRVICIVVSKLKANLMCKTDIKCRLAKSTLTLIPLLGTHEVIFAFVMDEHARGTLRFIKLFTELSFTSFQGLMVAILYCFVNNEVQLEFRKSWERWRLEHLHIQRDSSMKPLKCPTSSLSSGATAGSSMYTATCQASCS
T1 sequence (P43220 24-463): as the sequence (P43220 24-463 L260F) above, with F237L counted along it

SMILES | EC50 [1] | EC50 [2]
N#Cc1ccc(COc2cccc(N3CCN(Cc4nc5ccc(C(=O)O)cc5n4C[C@@H]4CCO4)[C@H]4CC[C@H]43)n2)c(F)c1 (single isomer, unassigned) [Example 2b, 2-(((1R*,6S*)-5-(6-((4-Cyano-2-fluorobenzyl)oxy)pyridin-2-yl)-2,5-diazabicyclo[4.2.0]octan-2-yl)methyl)-1-(((S)-oxetan-2-yl)methyl)-1H-benzo[d]imidazole-6-carboxylic acid] | 32 nM | 17 nM
O=C(O)c1cc(Cl)c2nc(CN3CCN(c4cccc(OCc5ccc(Cl)cc5F)n4)[C@@H]4COC[C@@H]43)n(C[C@@H]3CCO3)c2c1 (single isomer, unassigned) [Example 22a, 4-Chloro-2-(((4aR*,7aS*)-4-(6-((4-chloro-2-fluorobenzyl)oxy)pyridin-2-yl)hexahydrofuro[3,4-b]pyrazin-1(2H)-yl)methyl)-1-(((S)-oxetan-2-yl)methyl)-1H-benzo[d]imidazole-6-carboxylic acid] | 6.6 nM | 1 nM
COc1cc(C(=O)O)cc2c1nc(CN1CCN(c3cccc(OCc4ccc(Cl)cc4F)n3)[C@H]3CC[C@@H]31)n2C[C@@H]1CCO1 (single isomer, unassigned) [Example 5a, 2-(((1R*,6R*)-5-(6-((4-Chloro-2-fluorobenzyl)oxy)pyridin-2-yl)-2,5-diazabicyclo[4.2.0]octan-2-yl)methyl)-4-methoxy-1-(((S)-oxetan-2-yl)methyl)-1H-benzo[d]imidazole-6-carboxylic acid] | 4 nM | 6.4 nM
O=C(O)c1cc(F)c2nc(CN3CCN(c4cccc(OCc5ccc(Cl)cc5F)n4)[C@@H]4COC[C@@H]43)n(C[C@@H]3CCO3)c2c1 (single isomer, unassigned) [Example 19b, 2-(((4aR*,7aS*)-4-(6-((4-Chloro-2-fluorobenzyl)oxy)pyridin-2-yl)hexahydrofuro[3,4-b]pyrazin-1(2H)-yl)methyl)-4-fluoro-1-(((S)-oxetan-2-yl)methyl)-1H-benzo[d]imidazole-6-carboxylic acid] | 290 nM | 120 nM
N#Cc1ccc(COc2cccc(N3CCN(Cc4nc5ccc(C(=O)O)cc5n4C[C@@H]4CCO4)[C@H]4CC[C@H]43)n2)c(F)c1 (single isomer, unassigned) [Example 2a, 2-(((1R*,6S*)-5-(6-((4-Cyano-2-fluorobenzyl)oxy)pyridin-2-yl)-2,5-diazabicyclo[4.2.0]octan-2-yl)methyl)-1-(((S)-oxetan-2-yl)methyl)-1H-benzo[d]imidazole-6-carboxylic acid] | 4.1 nM | 1.2 nM
O=C(O)c1cc(Cl)c2nc(CN3CCN(c4cccc(OCc5ccc(Cl)cc5F)n4)[C@@H]4COC[C@@H]43)n(C[C@@H]3CCO3)c2c1 (single isomer, unassigned) [Example 22b, 4-Chloro-2-(((4aR*,7aS*)-4-(6-((4-chloro-2-fluorobenzyl)oxy)pyridin-2-yl)hexahydrofuro[3,4-b]pyrazin-1(2H)-yl)methyl)-1-(((S)-oxetan-2-yl)methyl)-1H-benzo[d]imidazole-6-carboxylic acid] | 270 nM | 150 nM
COc1cc(C(=O)O)cc2c1nc(CN1CCN(c3cccc(OCc4ccc(Cl)cc4F)n3)[C@@H]3COC[C@@H]31)n2C[C@@H]1CCO1 (single isomer, unassigned) [Example 16b, 2-(((4aR*,7aS*)-4-(6-((4-Chloro-2-fluorobenzyl)oxy)pyridin-2-yl)hexahydrofuro[3,4-b]pyrazin-1(2H)-yl)methyl)-4-methoxy-1-(((S)-oxetan-2-yl)methyl)-1H-benzo[d]imidazole-6-carboxylic acid] | 120 nM | 64 nM
Cc1nccn1CCn1c(CN2CCN(c3cccc(OCc4ccc(Cl)cc4F)n3)[C@@H]3COC[C@@H]32)nc2c(Cl)cc(C(=O)O)cc21 (single isomer, unassigned) [Example 24] | 340 nM | 250 nM
N#Cc1ccc(COc2cccc(N3CCN(Cc4nc5ccc(C(=O)O)c(Cl)c5n4C[C@@H]4CCO4)[C@H]4CC[C@H]43)n2)c(F)c1 (single isomer, unassigned) [Example 8c] | 620 nM | 140 nM
N#Cc1ccc(COc2cccc(N3CCN(Cc4nc5cc(F)c(C(=O)O)cc5n4C[C@@H]4CCO4)[C@H]4CC[C@@H]43)n2)c(F)c1 (single isomer, unassigned) [Example 9a] | 69 nM | 180 nM
CCn1cncc1Cn1c(CN2CCN(c3cccc(OCc4ccc(Cl)cc4F)n3)[C@H]3CC[C@@H]32)nc2c(OC)cc(C(=O)O)cc21 (single isomer, unassigned) [Example 12b] | 16 nM | 8.9 nM
O=C(O)c1cc(F)c2nc(CN3CCN(c4cccc(OCc5ccc(Cl)cc5F)n4)[C@@H]4COC[C@@H]43)n(C[C@H]3CCOC3)c2c1 (single isomer, unassigned) [Example 18a] | 89 nM | 110 nM
Cn1ccc(Cn2c(CN3CCN(c4cccc(OCc5ccc(C#N)cc5F)n4)[C@@H]4CC[C@@H]43)nc3ccc(C(=O)O)cc32)n1 (racemic) [Example 1, rac-2-(((1R,6S)-5-(6-((4-Cyano-2-fluorobenzyl)oxy)pyridin-2-yl)-2,5-diazabicyclo[4.2.0]octan-2-yl)methyl)-1-((1-methyl-1H-pyrazol-3-yl)methyl)-1H-benzo[d]imidazole-6-carboxylic acid] | 280 nM | 130 nM

From patent publication US20250115612A1, “CERTAIN 2,5-DIAZABICYCLO[4.2.0]OCTANES AND OCTAHYDROFURO[3,4-B]PYRAZINES AS GLP-1 RECEPTOR MODULATORS” (ASTRAZENECA AB, priority 2021, published 2025)
